Usually IC50 stands for the concentration that gives 50% inhibition.

Structures are written as SMILES.

Data on 2 compounds can be found in patent US12084458B2, “Substituted pyridines, pyridazines, and pyrimidines as TYK2 inhibitors” (Sudo Biosciences Limited, priority 2021, dated 2024).

For assay [1], the system named is HEK-Blue IL-23 cells (IL-23-stimulated STAT3 SEAP reporter; TYK2 JH2). The experiment in a line: HEK-Blue IL-23 SEAP reporter assay for profiling TYK2 pseudokinase (JH2) inhibition. It counts as cell-based. The note with it: 10 ng/mL human recombinant IL-23, SEAP reporter, read-out: IL23 (TYK2 inhibitory activity, IC50). Put shortly:
(§1)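 Cells plated 20-22 h at 37 °C, 5% CO2 in DMEM with 10% heat-inactivated FBS, then pretreated with serially diluted compound for 60 min. Stimulation: 10 ng/mL human recombinant IL-23 for 22-24 h, or 1 ng/mL human recombinant IFNα for 16-18 h. SEAP induction read with QUANTI-Blue.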
In general terms: In a reporter assay the amount or activity of a reporter protein is the signal.

For assay [2], the system named is HEK-Blue IFNα/β cells (IFNα-stimulated STAT1 SEAP reporter; TYK2 JH2). Briefly: HEK-Blue IFNα/β SEAP reporter assay for profiling TYK2 pseudokinase (JH2) inhibition. It counts as cell-based. The note with it: Homo sapiens, HEK-Blue, 1 ng/mL human recombinant IFNα, read-out: IFNα (TYK2 inhibitory activity, IC50). Put shortly: as §1
The target in the next assay is T1, TYK2 kinase domain (JH1) (Homo sapiens, UniProt P29597).
T1 construct: recombinant purified His or GST-tagged catalytic domain for each enzyme; made in house
T1 sequence (P29597 897-1176 limits assumed): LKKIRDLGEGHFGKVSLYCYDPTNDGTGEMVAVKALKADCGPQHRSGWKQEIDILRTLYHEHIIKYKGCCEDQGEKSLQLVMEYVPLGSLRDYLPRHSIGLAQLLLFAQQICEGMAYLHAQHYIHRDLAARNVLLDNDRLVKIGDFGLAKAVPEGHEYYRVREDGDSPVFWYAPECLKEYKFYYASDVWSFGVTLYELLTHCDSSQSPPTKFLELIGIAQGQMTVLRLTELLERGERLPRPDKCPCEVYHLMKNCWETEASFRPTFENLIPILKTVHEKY
The experiment in a line: HTRF-based selectivity assay, TYK2 catalytic domain. The class given is biochemical. The note with it: recombinant catalytic domain, ATP 20 μM. The method in brief:
(§2)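 Tagged recombinant catalytic domains with peptide substrate in HTRF, buffer 50 mM HEPES, 10 mM MgCl2, 1 mM EGTA, 2 mM DTT, 0.01% Tween-20; enzyme preincubated 5-20 min with compound, then reacted 60 min at 26.5 °C. Final ATP: TYK2 20 μM, JAK1 21.43 μM, JAK2 14.7 μM, JAK3 2.12 μM; substrate 217, 454.7, 200, 257.4 nM respectively.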
A general note: TR-FRET usually uses a lanthanide donor and a delayed reading to cut background.

A further assay concerns the target T2, JAK1 kinase domain (JH1) (Homo sapiens, UniProt P23458).
T2 construct: recombinant purified His or GST-tagged catalytic domain for each enzyme; made in house
The experiment in a line: HTRF-based selectivity assay, JAK1 catalytic domain. It counts as biochemical. Conditions: recombinant catalytic domain, ATP 21.43 μM. Put shortly:
as §2

In a further assay the target is T3, JAK2 kinase domain (JH1) (Homo sapiens, UniProt O60674).
T3 construct: recombinant purified His or GST-tagged catalytic domain for each enzyme; made in house
T3 sequence (O60674 849-1124 limits assumed): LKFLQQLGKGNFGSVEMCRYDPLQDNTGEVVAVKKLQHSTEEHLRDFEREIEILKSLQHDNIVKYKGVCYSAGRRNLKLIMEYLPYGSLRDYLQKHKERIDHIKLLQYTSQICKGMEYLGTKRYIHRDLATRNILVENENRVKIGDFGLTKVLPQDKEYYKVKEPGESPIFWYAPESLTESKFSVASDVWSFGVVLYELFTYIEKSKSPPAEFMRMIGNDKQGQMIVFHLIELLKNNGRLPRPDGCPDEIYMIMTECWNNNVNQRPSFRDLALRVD
The experiment in a line: HTRF-based selectivity assay, JAK2 catalytic domain. The class given is biochemical. The note with it: recombinant catalytic domain, ATP 14.7 μM. How it is done:
Example B-2: HTRF-Based Selectivity Assay
The ability of compounds to inhibit the activity of JAK1, JAK2, JAK3 and TYK2 is measured using a recombinant purified His or GST-tagged catalytic domain for each enzyme (JAK1, JAK2 and TYK2 are generated in-house; JAK3 was purchased from Carna biosciences, Cat #08-046) in an HTRF format biochemical assay. The reactions employs a commercial peptide substrate from Cisbio (Cat #62TK0PEC). The basic assay protocol is as follows: first, 2.5 μL of diluted compounds (4×) in DMSO are dispensed into a 384-well Optiplate. Next, 2.5 μL of enzyme (final concentrations for enzymes are: TYK2—700 ng/mL, JAK1—80.6 ng/mL, JAK2—2.1 ng/mL and JAK3—171.8 ng/mL) is added and incubated at RT for 5-20 min. Finally, 5 μl of mixture of 2× ATP [Final concentration 20 μM for TYK2, 21.43 μM for JAK1, 14.7 μM for JAK2 and 2.12 μM for JAK3]+2× Substrate [Final concentration 217 nM for TYK2, 454.7 nM for JAK1, 200 nM for JAK2 and 257.4 nM for JAK3] is added to 384 well Optiplate. Composition of Kinase assay buffer used in the assay is as follows: HEPES 50 mM, EGTA 1 mM, MgCl2 10 mM, DTT 2 mM, Tween-20 0.01% and water. Then the plates are shaken and then incubated at 26.5° C. for 60 min.

The target of a further assay is T4, JAK3 kinase domain (JH1) (Homo sapiens, UniProt P52333).
T4 construct: recombinant purified His or GST-tagged catalytic domain for each enzyme; purchased Carna biosciences 08-046
T4 sequence (P52333 822-1111 limits assumed): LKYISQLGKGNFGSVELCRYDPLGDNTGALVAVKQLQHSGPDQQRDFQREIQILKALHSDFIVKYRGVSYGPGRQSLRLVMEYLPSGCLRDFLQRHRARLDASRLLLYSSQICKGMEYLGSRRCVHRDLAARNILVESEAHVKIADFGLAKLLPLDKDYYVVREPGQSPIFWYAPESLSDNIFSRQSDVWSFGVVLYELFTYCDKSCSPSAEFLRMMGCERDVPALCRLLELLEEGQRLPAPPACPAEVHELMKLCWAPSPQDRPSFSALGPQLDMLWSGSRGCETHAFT
Briefly: HTRF-based selectivity assay, JAK3 catalytic domain. It counts as biochemical. Conditions: recombinant catalytic domain, ATP 2.12 μM. The method in brief: as §2

Assay [3] relates to HEK-Blue IL-2 reporter cells (IL-2-stimulated STAT5 SEAP reporter). The experiment in a line: HEK-Blue IL-2 SEAP reporter assay for determining selectivity. The class given is cell-based. The note with it: 4 ng/mL human recombinant IL-2. Put shortly: (§3)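 Cells were plated for 20-22 h, then pretreated with serially diluted compound for 60 min. They were stimulated for 24 h with 4 ng/mL human recombinant IL-2 or 50 ng/mL human recombinant IFNγ, and SEAP induction was read with QUANTI-Blue.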

The subject of assay [4] is HEK-Blue IFNγ reporter cells (IFNγ-stimulated STAT1 SEAP reporter). Briefly: HEK-Blue IFNγ SEAP reporter assay for determining selectivity. The class given is cell-based. The note with it: Homo sapiens, HEK-Blue, 50 ng/mL human recombinant IFNγ, read-out: IFN-γ (SEAP selectivity, IC50). The method in brief:
as §3

T2 sequence (P23458 875-1153 limits assumed): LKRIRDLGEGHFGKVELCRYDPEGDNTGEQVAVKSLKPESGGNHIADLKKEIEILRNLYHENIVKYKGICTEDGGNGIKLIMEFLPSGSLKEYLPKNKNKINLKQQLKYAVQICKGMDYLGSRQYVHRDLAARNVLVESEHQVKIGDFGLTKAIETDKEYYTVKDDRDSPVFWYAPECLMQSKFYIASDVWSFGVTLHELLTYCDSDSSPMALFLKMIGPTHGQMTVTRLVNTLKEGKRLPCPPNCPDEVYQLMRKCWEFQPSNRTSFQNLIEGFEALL

For the compound `[2H]C([2H])([2H])NC(=O)c1cnc(NC(=O)C2CC2)cc1Nc1nccc2c1N(C)Cc1nc(C)nn1-2` [Compound 84, 6-(cyclopropanecarboxamido)-4-((2,5-dimethyl-4,5-dihydropyrido[3,4-e][1,2,4]triazolo[1,5-a]pyrazin-6-yl)amino)-N-(methyl-d3)nicotinamide], the IC50 in assay [1] is below 30 nM; in assay [2], 30 to 300 nM; at TYK2 kinase domain (JH1), above 1000 nM; on JAK1 kinase domain (JH1) it was above 1000 nM; at JAK2 kinase domain (JH1) it was above 1000 nM; on JAK3 kinase domain (JH1), above 1000 nM. The half-inhibitory concentration (IC50) in assay [3] and in assay [4] was above 1000 nM throughout.
On to `[2H]C([2H])([2H])NC(=O)c1nnc(NC(=O)C2CC2)cc1Nc1nccc2c1N(C)Cc1nc(C)nn1-2` [Compound 85, 6-(cyclopropanecarboxamido)-4-((2,5-dimethyl-4,5-dihydropyrido[3,4-e][1,2,4]triazolo[1,5-a]pyrazin-6-yl)amino)-N-(methyl-d3)pyridazine-3-carboxamide], for which the IC50 in assay [1] was below 30 nM; in assay [2], 30 to 300 nM; on TYK2 kinase domain (JH1), above 1000 nM; on JAK1 kinase domain (JH1), above 1000 nM; at JAK2 kinase domain (JH1), above 1000 nM; on JAK3 kinase domain (JH1) it was above 1000 nM. The values for the 50% inhibitory concentration (IC50) in assay [3] and in assay [4] were above 1000 nM and 30 to 300 nM, respectively.
